According to ChEMBL document CHEMBL1138704, “Farnesyl protein transferase inhibitors targeting the catalytic zinc for enhanced binding” (Bioorg Med Chem Lett, 2004):
pIC50: −log10 of the molar value. “And” between values parts separate entries of the source, which are not always exact repeats. Equal entries are not always repeated.

Key:
[1] = target: T1, Protein farnesyltransferase (Homo sapiens) (UniProt P49354+P49356); test: Inhibition of [3H]FPP incorporation into H-ras CVLS by farnesyltransferase; format: protein-complex assay
[2] = target: T1, Protein farnesyltransferase (Homo sapiens); test: Percent inhibition of [3H]FPP incorporation into H-ras CVLS by farnesyltransferase at 0.4 uM; format: protein-complex assay
[3] = target: T1, Protein farnesyltransferase (Homo sapiens); test: Percent inhibition of [3H]FPP incorporation into H-ras CVLS by farnesyltransferase at 1.1 uM; format: protein-complex assay
[4] = Inhibition of [3H]-FPP incorporation into H-ras CVLS by farnesyltransferase

Compound	inhibition [3]	pIC50 [4]	further results
O=C(NCc1cccnc1)[C@@H]1CCCCN1C1c2ccc(Cl)cc2CCc2cc(Br)cnc21 (stereo partly specified)	–	–	Inhibitory activity [1]: 0.3 µM and 0.16 µM
O=C(NCc1cccnc1)[C@H]1CCCCN1C1c2ccc(Cl)cc2CCc2cc(Br)cnc21 (stereo partly specified)	–	–	inhibition [2]: 0.4% and 11%
O=C(NCc1ccncc1)[C@@H]1CCCCN1C1c2ccc(Cl)cc2CCc2cc(Br)cnc21 (stereo partly specified)	0% and 13%	–	–
NC(=O)N1CCC(CC(=O)N2CCC([C@H]3c4ncc(Br)cc4CCc4cc(Cl)cc(Br)c43)CC2)CC1 [LONAFARNIB]	–	8.70	–
O=C(NCc1ccncc1)[C@H]1CCCCN1C1c2ccc(Cl)cc2CCc2cc(Br)cnc21 (stereo partly specified)	18% and 27%	–	–
O=C(NCCCn1ccnc1)[C@@H]1CCCCN1C1c2ncc(Br)cc2CCc2cc(Cl)cc(Br)c21 (stereo partly specified)	–	9.05 and 9.40	–
